Results on eight compounds are retold here after patent US9102675B2, “3-Cyanoaryl-1H-pyrrolo[2,3-B] pyridine derivatives” (MERCK PATENT GMBH, priority 2011, dated 2015).

For one assay, the system named is TBK1 + IKKε. Put plainly: TBK1 + IKKε cell assay: dose response inhibition of phospho-IRF3 @ Ser 386 in MDA-MB-468 cells after poly(I:C) stimulation. Type of assay: cell-based. The following applies: Homo sapiens, MDA-MB-468, MDA-MB-468 cells, reference inhibitor, read-out: IC50 of reference inhibitor in phospho-IRF3 cell assay. From the text:
Dose response inhibition of phospho-IRF3 @ Ser 386 cell/MDAMB468/INH/PHOS/IMAG/pIRF3
Although TBK1 and IKKε are mainly known as key substances in the innate immune response, recent findings have indicated a role for TBK1 and IKKε in Ras-induced oncogenic transformation. TBK1 was identified as RaIB effector in the Ras-like (RaI)-guanine nucleotide exchange factor (GEF) pathway that is required for Ras-induced transformation. TBK1 directly activates IRF3 which, on phosphorylation, homodimerises and translocates to the nucleus, where it activates processes associated with inflammation, immune regulation, cell survival and proliferation.
This assay has been developed in order to assess the efficacy/potency of TBK1/IKKε inhibitor compounds based on the immunocytochemical detection of nucleus-localised phospho-IRF3, a target directly downstream of TBK1. Treatment with polyinosine-polycytidylic acid (poly(I:C), a synthetic analogue of double-stranded RNA (dsRNA), a molecular pattern associated with viral infection and recognised by Toll-like receptor 3 (TLR3) is used to induce TBK1/IKKε activity and IRF3 phosphorylation at Ser386.
Day 1: MDA-MB-468 cells are detached using HyQ-Tase, counted and sown into a 384-well plate with TC surface and clear bottom in a density of 10,000 cells per well in a total volume of 35 μl of complete medium. Alternatively, the cells are sown directly from frozen glass vials.
Day 2: The cells are pre-treated with inhibitor compounds for 1 h prior to poly(I:C) stimulation. After incubation for 2 h with poly(I:C), the cells are fixed in (para)formaldehyde (PFA) and permeabilised using methanol (MeOH). The cells are then blocked and incubated with an anti-pIRF3 antibody at 4° C. overnight.
Day 3: The primary antibody is washed off, an AlexaFluor488-conjugated secondary antibody is added, the cells are contrast-stained with propidium iodide, followed by image acquisition on an IMX ultra-high content reader.
Plating medium=culture medium: • RPMI 1640, Invitrogen #31870 • 10% of FCS, Invitrogen #10270-106 • 2 mM Glutamax, Invitrogen #35050-038 • 1 mM sodium pyruvate, Invitrogen #11360 • 1% of Pen/Strep • 37° C., 5% of CO2
Plates: 384-well bottom cell culture plates with black/clear bottom, Falcon #35 3962 or Greiner #781090
Subcultivation: HyQ-Tase, Thermo Scientific (HyClone) # SV30030.01
Poly(I:C) (LMW), Invitrogen # tlrl-picw (prepare 20 mg/ml stock solution in sterile PBS, denature 30 min 55° C. in a water bath, slowly cool to RT, store at −20° C. in aliquots)
a 10-point dose-response curve with MSC2119074A-4=BX-795 is included in each experiment
Formaldehyde (methanol-free, 16%, ultrapure EM grade), Polysciences #18814 (storage RT), final conc.: 4%
Goat serum, PAA # B15-035 (storage 4° C., long term −20° C.), final conc.: 10%
BSA (IgG- and protease-free, 30%), US-Biological # A1317 (storage 4° C., long term −20° C.), final conc.: 2%
Tween 20 detergent, Calbiochem #655204 (storage RT), (prepare 10% stock solution in water; final conc.: 0.1%)
Anti-pIRF-3 rabbit mAb, Epitomics #2526-B (storage −20° C.), final conc.: 1:2000 in PBS/2% of BSA
Alexa Fluor goat-anti-rabbit-488, Invitrogen # A11034 or # A11008 (storage 4° C., dark), final conc.: 1:2000 in PBS/2% of BSA/0.1% of Tween
Propidium iodide (PI), Fluka #81845, 1 mg/ml in H2O (storage 4° C., dark), final conc.: 0.2 μg/ml
(1) Sow 10,000 cells/well/35μof complete RPMI +10% FCS into 384-well bottom cell culture plates with black / clear bottom,
(2) Incubate for 2 h at room temperature on the bench, followed by further incubation for 22 h at 37° C., 5% of CO2 and 90% RH. […]

Assay [1] concerns the target T1, TANK binding kinase (TBK1) (Homo sapiens, UniProt Q9UHD2).
T1 sequence (Q9UHD2 1-729): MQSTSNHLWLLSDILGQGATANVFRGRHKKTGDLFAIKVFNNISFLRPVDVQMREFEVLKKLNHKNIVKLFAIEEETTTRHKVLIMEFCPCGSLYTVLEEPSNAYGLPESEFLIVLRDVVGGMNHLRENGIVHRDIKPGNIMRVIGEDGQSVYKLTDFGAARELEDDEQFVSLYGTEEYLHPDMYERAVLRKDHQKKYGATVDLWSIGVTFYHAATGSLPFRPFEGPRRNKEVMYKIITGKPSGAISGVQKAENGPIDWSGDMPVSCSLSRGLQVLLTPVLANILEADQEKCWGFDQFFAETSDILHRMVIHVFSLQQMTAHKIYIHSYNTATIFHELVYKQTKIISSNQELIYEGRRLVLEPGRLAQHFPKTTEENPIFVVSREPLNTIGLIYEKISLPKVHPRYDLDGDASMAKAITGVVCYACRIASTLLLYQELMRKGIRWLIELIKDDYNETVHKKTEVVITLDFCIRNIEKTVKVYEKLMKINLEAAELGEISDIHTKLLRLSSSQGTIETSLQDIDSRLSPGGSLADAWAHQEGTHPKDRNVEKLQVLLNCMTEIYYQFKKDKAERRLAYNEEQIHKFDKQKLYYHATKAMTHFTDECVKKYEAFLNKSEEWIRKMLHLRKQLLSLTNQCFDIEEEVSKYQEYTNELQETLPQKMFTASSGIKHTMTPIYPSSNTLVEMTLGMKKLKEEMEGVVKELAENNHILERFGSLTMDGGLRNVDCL
Briefly: TBK1 enzyme assay (384-well flashplate kinase assay). The assay is classed as biochemical. The following applies: 10 μM ATP, 0.6 nM TBK1. The protocol: Test for the Inhibition of TBK1
(§1) The kinase assay is performed as 384-well flashplate assay (for example for Topcount measurement).
0.6 nM TANK binding kinase (TBK1), 800 nM biotinylated MELK-derived peptide (biotin-Ah-Ah-[…]) and 10 μM ATP (spiked with 0.25 μCi of ^33P-ATP/well) are incubated at 30° C. for 120 min in a total volume of 50 μl (10 mM MOPS, 10 mM Mg acetate, 0.1 mM EGTA, 1 mM DTT, 0.02% of Brij35, 0.1% of BSA, pH 7.5) with or without test compound. The reaction is stopped with 25 μl of 200 mM EDTA. After 30 min at room temperature, the liquid is removed, and each well is washed three times with 100 μl of 0.9% sodium chloride solution. Non-specific reaction is measured in the presence of 100 nM staurosporine. The radioactivity is measured in a Topcount (PerkinElmer). The results (for example IC50 values) are calculated using program tools provided by the IT Department (for example Assay-Explorer, Symyx). Cell Test

Another assay has as its target T2, IKKε (Homo sapiens, UniProt Q14164).
T2 sequence (Q14164 1-716): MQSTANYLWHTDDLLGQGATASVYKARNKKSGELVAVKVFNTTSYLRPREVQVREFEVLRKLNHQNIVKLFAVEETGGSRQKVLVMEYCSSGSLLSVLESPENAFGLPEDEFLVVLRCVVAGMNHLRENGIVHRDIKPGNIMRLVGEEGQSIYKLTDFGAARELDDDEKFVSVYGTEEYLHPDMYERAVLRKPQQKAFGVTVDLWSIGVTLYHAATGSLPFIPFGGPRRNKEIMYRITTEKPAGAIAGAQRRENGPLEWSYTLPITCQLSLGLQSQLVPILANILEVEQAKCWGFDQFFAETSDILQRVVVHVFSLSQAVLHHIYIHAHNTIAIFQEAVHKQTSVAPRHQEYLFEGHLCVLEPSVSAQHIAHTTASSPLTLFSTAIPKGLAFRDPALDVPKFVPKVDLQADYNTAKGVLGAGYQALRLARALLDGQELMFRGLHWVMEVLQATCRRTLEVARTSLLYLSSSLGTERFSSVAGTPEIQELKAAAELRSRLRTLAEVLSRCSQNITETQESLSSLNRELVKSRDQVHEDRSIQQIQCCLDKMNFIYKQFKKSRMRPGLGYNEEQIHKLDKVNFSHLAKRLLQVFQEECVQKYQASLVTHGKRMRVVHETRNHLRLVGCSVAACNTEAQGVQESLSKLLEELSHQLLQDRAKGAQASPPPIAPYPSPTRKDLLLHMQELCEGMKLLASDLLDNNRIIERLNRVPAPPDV
Put plainly: IKKε kinase assay (384-well flashplate assay). Type of assay: biochemical. The following applies: 10 μM ATP, 1 nM IKKε; read-out: IKKε enzyme assay IC50. The protocol: Test for the Inhibition of IKKε
IKKε—Kinase Assay (IKKepsilon)
as §1
1 nM IKKε, 800 nM biotinylated IκKα(19-42) peptide (Biotin-C6-C6-[…]) and 10 μM ATP (spiked with 0.3 μCi of ^33P-ATP/well) are incubated at 30° C. for 2 hours in a total volume of 50 μl (10 mM MOPS, 10 mM Mg acetate, 0.1 mM EGTA, 1 mM dithiothreitol, 0.02% of Brij35, 0.1% of BSA, 0.1% of BioStab, pH 7.5) with or without test compound. The reaction is stopped using 25 μl of 200 mM EDTA. After 30 min at room temperature, the liquid is removed, and each well is washed three times with 100 μl of 0.9% sodium chloride solution. Non-specific reaction is determined in the presence of 3 μM MSC2119074 (BX-795). The radioactivity is measured using a Topcount (Perkin Elmer). The results (for example IC50 values) are calculated using program tools provided by the IT Department (for example AssayExplorer, Symyx).

SMILES strings stand for the structures. Where only a bound is given, the exact number is not on record here.

Turning to `O=C(NCCCNc1nc(Nc2cccc(NC(=O)N3CCCC3)c2)ncc1I)c1cccs1` [BX-795, reference compound], the IC50 in the assay on TBK1 + IKKε lay in the range of 200 to 800 nM.

On to `COc1ccnc2[nH]cc(-c3ccc(OC4CCOCC4)c(C#N)c3)c12` [Compound A2, 5-(4-methoxy-1H-pyrrolo[2,3-b]pyridin-3-yl)-2-tetrahydropyran-4-yloxybenzonitrile], for which the IC50 (in assay [1]; at IKKε) was 0.3 to 3 µM each time.

Regarding `COc1ccc2c(-c3ccc(OC4CCOCC4)c(C#N)c3)c[nH]c2n1` [Compound A3, 5-(6-methoxy-1H-pyrrolo[2,3-b]pyridin-3-yl)-2-tetrahydropyran-4-yloxybenzonitrile], the IC50 (in assay [1]; at IKKε) was 3 to 50 µM throughout.

On to `N#Cc1cc(-c2c[nH]c3ncc(Br)cc23)ccc1OC1CCOCC1` [Compound A5, 5-(5-bromo-1H-pyrrolo[2,3-b]pyridin-3-yl)-2-tetrahydropyran-4-yl-oxy-benzonitrile], for which the IC50 (in assay [1]; at IKKε) was 3 to 50 µM each time.

Regarding `N#Cc1ccc(-c2cnc3[nH]cc(-c4ccc(OC5CCOCC5)c(C#N)c4)c3c2)cc1` [Compound A6, 5-[5-(4-cyanophenyl)-1H-pyrrolo[2,3-b]pyridin-3-yl]-2-tetrahydropyran-4-yloxybenzonitrile], the IC50 in assay [1] is under 0.3 µM; at IKKε it was 0.3 to 3 µM.

As to `Cc1[nH]c2ncc(-c3cnn(C)c3)cc2c1-c1ccc(OC2CCOCC2)c(C#N)c1` [Compound A11, 5-[2-methyl-5-(1-methylpyrazol-4-yl)-1H-pyrrolo[2,3-b]pyridin-3-yl]-2-tetrahydropyran-4-yloxybenzonitrile], the figures for the IC50 (in assay [1]; at IKKε) were under 0.3 µM and 0.3 to 3 µM, respectively.

Take `N#Cc1cc(-c2c[nH]c3ncc(Br)cc23)ccc1OCC1CC1` [Compound A14, 5-(5-bromo-1H-pyrrolo[2,3-b]pyridin-3-yl)-2-(cyclopropylmethoxy)benzonitrile]: the IC50 (in assay [1]; on IKKε) was 3 to 50 µM throughout.

`N#Cc1cc(-c2c[nH]c3ncc(-c4cnn(C5CCN(S(=O)(=O)c6ccccc6)CC5)c4)cc23)cnc1OC1CCOCC1` [Compound A19, 5-[5-[1-[1-(benzenesulfonyl)-4-piperidyl]pyrazol-4-yl]-1H-pyrrolo[2,3-b]pyridin-3-yl]-2-tetrahydropyran-4-yloxypyridine-3-carbonitrile]: the IC50 (in assay [1]; at IKKε) was 0.3 to 3 µM throughout.
